Where “and” joins values, the source holds several entries; their conditions need not be identical. Equal values may be shown once. Inconclusive results and toxic doses are left out.
Tested on: P388 leukemia ip, CD2F1 mice, survival T/C
Experiment: NCI In Vivo Anticancer Drug Screen. Data for tumor model P388 Leukemia (intraperitoneal) in CD2F1 (CDF1) mice
Conditions: endpoint: median survival time, higher = longer survival
How it was run: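 Mice carrying the transplanted tumor received test compound or vehicle. Survival was recorded in each group, and the value is the treated-group measurement divided by that of the vehicle-treated control group.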

[1] = dose: 50.0 mg/kg/injection, schedule: Q01DX005 (ip), vehicle: saline with Tween-80
[2] = dose: 100.0 mg/kg/injection, schedule: Q01DX005 (ip), vehicle: saline with Tween-80
[3] = dose: 200.0 mg/kg/injection, schedule: Q01DX005 (ip), vehicle: saline with Tween-80
[4] = dose: 50.0 mg/kg/injection, schedule: Q01DX005 (ip), vehicle: Klucel (hydroxypropylcellulose) (HPC)
[5] = dose: 100.0 mg/kg/injection, schedule: Q01DX005 (ip), vehicle: Klucel (hydroxypropylcellulose) (HPC)
[6] = dose: 200.0 mg/kg/injection, schedule: Q01DX005 (ip), vehicle: Klucel (hydroxypropylcellulose) (HPC)
[7] = dose: 3.13 mg/kg/injection, schedule: Q01DX009 (ip), vehicle: water
[8] = dose: 6.25 mg/kg/injection, schedule: Q01DX009 (ip), vehicle: water
[9] = dose: 12.5 mg/kg/injection, schedule: Q01DX009 (ip), vehicle: water
[10] = dose: 25.0 mg/kg/injection, schedule: Q01DX009 (ip), vehicle: water
[11] = dose: 50.0 mg/kg/injection, schedule: Q01DX009 (ip), vehicle: saline with Tween-80
[12] = dose: 100.0 mg/kg/injection, schedule: Q01DX009 (ip), vehicle: saline with Tween-80
[13] = dose: 200.0 mg/kg/injection, schedule: Q01DX009 (ip), vehicle: saline with Tween-80
[14] = dose: 6.25 mg/kg/injection, schedule: Q01DX009 (ip), vehicle: saline with Tween-80
[15] = dose: 12.5 mg/kg/injection, schedule: Q01DX009 (ip), vehicle: saline with Tween-80
[16] = dose: 50.0 mg/kg/injection, schedule: Q01DX009 (ip), vehicle: Klucel (hydroxypropylcellulose) (HPC)
[17] = dose: 100.0 mg/kg/injection, schedule: Q01DX009 (ip), vehicle: Klucel (hydroxypropylcellulose) (HPC)
[18] = dose: 25.0 mg/kg/injection, schedule: Q01DX009 (ip), vehicle: saline with Tween-80
[19] = dose: 100.0 mg/kg/injection, schedule: Q04DX002 (ip), vehicle: saline with Tween-80
[20] = dose: 200.0 mg/kg/injection, schedule: Q04DX002 (ip), vehicle: saline with Tween-80
[21] = dose: 400.0 mg/kg/injection, schedule: Q04DX002 (ip), vehicle: saline with Tween-80
[22] = dose: 12.5 mg/kg/injection, schedule: Q01DX009 (ip), vehicle: saline
[23] = dose: 25.0 mg/kg/injection, schedule: Q01DX009 (ip), vehicle: saline
[24] = dose: 50.0 mg/kg/injection, schedule: Q01DX009 (ip), vehicle: saline
[25] = dose: 200.0 mg/kg/injection, schedule: Q01DX009 (ip), vehicle: saline

For `Cn1c2c(c(=O)n(C)c1=O)Cc1cc(CC(=O)O)ccc1N2`, the T/C (dose: 100.0 mg/kg/injection, schedule: Q01DX001 (ip), vehicle: saline with Tween-80) was 99 % of control, the T/C (dose: 200.0 mg/kg/injection, schedule: Q01DX001 (ip), vehicle: saline with Tween-80) was 97 % of control and the T/C (dose: 400.0 mg/kg/injection, schedule: Q01DX001 (ip), vehicle: saline with Tween-80) was 96 % of control.
For `CN(C)c1ccc2ccc(=O)[nH]c2c1`, the T/C [1] was 95 % of control, the T/C [2] was 108 % of control and the T/C [3] was 99 % of control.
For `CN1CCC2(CC1)OCCO2`, the T/C (dose: 25.0 mg/kg/injection, schedule: Q01DX005 (ip), vehicle: Klucel (hydroxypropylcellulose) (HPC)) was 100 % of control, the T/C [4] was 100 % of control and the T/C [5] was 89 % of control. The T/C [6] was 89 % of control.
With `COC(=O)[C@]1(O)Cc2c(O)c3c(c(O)c2[C@@H](OC2CC(N)C(O)C(C)O2)C1)C(=O)c1c(OC)cccc1C3=O` (stereo partly drawn) the T/C (dose: 1.56 mg/kg/injection, schedule: Q01DX009 (ip), vehicle: water) was 110 % of control, the T/C [7] was 108 % of control and the T/C [8] was 109 % of control and 114 % of control. The T/C [9] was 116 % of control and 118 % of control and the T/C [10] was 116 % of control.
In the case of `c1ccc(CSc2nnc(NC3CCCCC3)s2)cc1`, the T/C [11] is reported as 96 % of control, the T/C [12] is reported as 96 % of control and the T/C [13] is reported as 100 % of control.
For `COc1cc2c(cc1OC)C1c3cc(OC)c(OC)cc3CCN1CC2`, the T/C [7] was 106 % of control, the T/C [8] was 106 % of control and the T/C [9] was 100 % of control. For the same molecule, the T/C [10] was 107 % of control.
`COc1ccc(S(=O)c2coc3ccccc3c2=O)cc1` (stereo not drawn) was tested, and the T/C (dose: 60.0 mg/kg/injection, schedule: Q01DX005 (ip), vehicle: saline with Tween-80) was 99 % of control, the T/C (dose: 120.0 mg/kg/injection, schedule: Q01DX005 (ip), vehicle: saline with Tween-80) was 100 % of control and the T/C (dose: 240.0 mg/kg/injection, schedule: Q01DX005 (ip), vehicle: saline with Tween-80) was 100 % of control.
For `Oc1c(Cl)cc(Cl)cc1C=NCCN(CCN=Cc1cc(Cl)cc(Cl)c1O)CCN=Cc1cc(Cl)cc(Cl)c1O`, the T/C [4] was 98 % of control, the T/C [5] was 92 % of control and the T/C [6] was 101 % of control.
`NC(=O)/C=C/C(=O)c1c(Cl)cccc1Cl` was tested, and the T/C (dose: 1.56 mg/kg/injection, schedule: Q01DX009 (ip), vehicle: saline with Tween-80) was 113 % of control, the T/C (dose: 3.13 mg/kg/injection, schedule: Q01DX009 (ip), vehicle: saline with Tween-80) was 111 % of control and the T/C [14] was 94 % of control. For the same molecule, the T/C [15] was 86 % of control and 87 % of control.
With `Brc1c(-c2ccccc2)nc2ccccc2c1Br` the T/C [1] was 103 % of control, the T/C [2] was 97 % of control and the T/C [3] was 94 % of control.
For `CCNC(=O)OCc1c(C)nc2n1CCS2`, the T/C [4] was 115 % of control and the T/C [5] was 112 % of control.
In the case of `CN(C=O)C(C(=O)Nc1cccc2c(OC(=O)C(N(C)C=O)(N(C)C=O)N(C)C=O)c(N=Nc3ccc(S(=O)(=O)Nc4nccs4)cc3)cc(N=Nc3ccc(S(=O)(=O)Nc4nccs4)cc3)c12)(N(C)C=O)N(C)C=O` (tested in a mixture with another compound), the T/C [2] is reported as 114 % of control, the T/C [3] is reported as 115 % of control and the T/C (dose: 500.0 mg/kg/injection, schedule: Q01DX001 (ip), vehicle: saline with Tween-80) is reported as 109 % of control. For the same molecule, the T/C (dose: 1000.0 mg/kg/injection, schedule: Q01DX001 (ip), vehicle: saline with Tween-80) was 105 % of control and the T/C (dose: 2000.0 mg/kg/injection, schedule: Q01DX001 (ip), vehicle: saline with Tween-80) was 113 % of control.
With `C=CCC(CC)(C(=O)Nc1ccc2nc(C)cc(N)c2c1)C(=O)Nc1ccc2nc(C)cc(N)c2c1` the T/C (dose: 6.25 mg/kg/injection, schedule: Q01DX005 (ip), vehicle: saline with Tween-80) was 94 % of control, the T/C (dose: 12.5 mg/kg/injection, schedule: Q01DX005 (ip), vehicle: saline with Tween-80) was 89 % of control and the T/C [2] was 87 % of control. For the same molecule, the T/C [3] was 96 % of control.
`C=C1C(=O)OC2CC(C)C3CC(OC)OC(OC)C3(C)CC12` (stereo not drawn) was tested, and the T/C [16] was 105 % of control and 97 % of control, the T/C [17] was 103 % of control and 114 % of control and the T/C (dose: 200.0 mg/kg/injection, schedule: Q01DX009 (ip), vehicle: Klucel (hydroxypropylcellulose) (HPC)) was 123 % of control and 97 % of control. The T/C (dose: 400.0 mg/kg/injection, schedule: Q01DX009 (ip), vehicle: Klucel (hydroxypropylcellulose) (HPC)) was 119 % of control.
In the case of `CC1=Nc2cc(Cl)c(Cl)cc2N(C)/C1=C/C1=C(Cl)C(=O)c2ccccc2C1=O`, the T/C [14] is reported as 114 % of control, the T/C [15] is reported as 95 % of control and the T/C [18] is reported as 107 % of control. For the same molecule, the T/C [11] was 105 % of control and the T/C [12] was 104 % of control.
For `N#CNC(c1ccccc1)(c1ccccc1)c1ccccc1`, the T/C [1] was 98 % of control, the T/C [2] was 98 % of control and the T/C [3] was 94 % of control.
In the case of `O=C1c2ccccc2CCC12OC2c1cccnc1` (stereo not drawn), the T/C (dose: 25.0 mg/kg/injection, schedule: Q01DX009 (ip), vehicle: Klucel (hydroxypropylcellulose) (HPC)) is reported as 100 % of control, the T/C [16] is reported as 100 % of control and the T/C [17] is reported as 104 % of control.
`O=C(O)c1nn(Cc2ccc(Cl)cc2)c2ccccc12` was tested, and the T/C [11] was 109 % of control, the T/C [12] was 103 % of control and the T/C [13] was 110 % of control.
`CCN(CC)Cc1cc(C)c(O)c(N=Nc2cccc3ccccc23)c1C` was tested, and the T/C [19] was 86 % of control, the T/C [20] was 91 % of control and the T/C [21] was 109 % of control.
`NNC(=O)C(=O)N/N=C(\CC1(O)C(=O)Nc2ccccc21)c1ccccc1O` (stereo not drawn) was tested, and the T/C [1] was 104 % of control, the T/C [2] was 98 % of control and the T/C [3] was 103 % of control.
`NCCNCC[OH2+].NCCNCC[OH2+].[Ni+2].[O-][Cl+3]([O-])([O-])[O-]` was tested, and the T/C [22] was 100 % of control, the T/C [23] was 93 % of control and the T/C [24] was 106 % of control and 93 % of control.
With `Cc1cc2c(c3ccccc13)C(=N/N=C(N)N)/C(=N/N=C(N)N)C2` the T/C [14] was 101 % of control, the T/C [15] was 108 % of control and the T/C (dose: 25.0 mg/kg/injection, schedule: Q01DX001 (ip), vehicle: saline with Tween-80) was 105 % of control. The T/C [18] was 101 % of control and the T/C (dose: 50.0 mg/kg/injection, schedule: Q01DX001 (ip), vehicle: saline with Tween-80) was 97 % of control.
With `COC(=O)c1cc([N+](=O)[O-])ccc1N=NNc1ccccc1` the T/C [22] was 106 % of control, the T/C [23] was 103 % of control and 95 % of control and the T/C [24] was 100 % of control and 105 % of control and 95 % of control. The T/C [25] was 87 % of control.
In the case of `O=C1CC(N2CCCC2)=Nc2ccccc2N1`, the T/C [4] is reported as 113 % of control, the T/C [5] is reported as 104 % of control and the T/C [6] is reported as 103 % of control.
In the case of `OCCN(CCO)CCCCCCN(CCO)CCO`, the T/C [23] is reported as 98 % of control, the T/C [24] is reported as 104 % of control and the T/C (dose: 100.0 mg/kg/injection, schedule: Q01DX009 (ip), vehicle: saline) is reported as 107 % of control. The T/C [25] was 113 % of control.
In the case of `O=C(NCCCl)Nc1ccnc(=O)[nH]1`, the T/C [1] is reported as 107 % of control, the T/C [2] is reported as 107 % of control and the T/C [3] is reported as 111 % of control.
`COC1=CC(=O)C(OC)=C(OC)C1=O` was tested, and the T/C (dose: 22.0 mg/kg/injection, schedule: Q01DX009 (ip), vehicle: saline with Tween-80) was 112 % of control, the T/C (dose: 33.0 mg/kg/injection, schedule: Q01DX009 (ip), vehicle: saline with Tween-80) was 123 % of control and the T/C (dose: 75.0 mg/kg/injection, schedule: Q01DX009 (ip), vehicle: saline with Tween-80) was 104 % of control.
For `Cn1c(CCC(=O)O)c(CC(=O)O)c2ccccc21`, the T/C [19] was 99 % of control, the T/C [20] was 97 % of control and the T/C [21] was 108 % of control.
`Cn1c2ccccc2c(=O)c2c([N+](=O)[O-])ccc(NCCN)c21` was tested, and the T/C (dose: 60.0 mg/kg/injection, schedule: Q01DX005 (ip), vehicle: saline) was 109 % of control and the T/C (dose: 120.0 mg/kg/injection, schedule: Q01DX005 (ip), vehicle: saline) was 114 % of control.
For `CC1=CC2OC3CC4OC(=O)/C=C/C=C/C(C(C)O)OCC(O)/C(C)=C/C(=O)OCC2(CC1O)C4(C)C31CO1` (stereo not drawn), the T/C (dose: 1.25 mg/kg/injection, schedule: Q01DX005 (ip), vehicle: saline + alcohol) was 163 % of control, the T/C (dose: 2.5 mg/kg/injection, schedule: Q01DX005 (ip), vehicle: saline + alcohol) was 156 % of control and 224 % of control and the T/C (dose: 5.0 mg/kg/injection, schedule: Q01DX005 (ip), vehicle: saline + alcohol) was 198 % of control and 243 % of control.

From PubChem BioAssay AID330 (DTP/NCI, 2004)
